{"source": "patent US20240050502A1", "about": "“AMANITA MUSCARIA COMPOUNDS” (priority 2020, published 2024)", "origin": "cited, not measured here", "key": {"monkey": {"system": "monkey", "settings": "quantity many times that which would cause poisoning by ingestion of Amanita muscaria in the human"}, "[1]": {"settings": "in vivo"}, "mice": {"system": "mice", "settings": "for LD50: intravenous administration in mice"}, "[2]": {"system": "inflammatory pain induced by formalin", "settings": "mice"}}, "data": [{"molecule": "C[C@@H]1O[C@H](C[N+](C)(C)C)C[C@H]1O", "note": "[muscarine]", "values": [{"measurement": "activity by mouth", "setting": "monkey", "result": "inactive"}]}, {"molecule": "NCc1cc(=O)[nH]o1", "note": "[muscimol]", "values": [{"measurement": "dose at which central nervous system intoxication occurs", "setting": "[1]", "result": 6.0, "unit": "mg"}, {"measurement": "LD50", "setting": "mice", "result": 5.62, "unit": "mg/kg"}]}, {"molecule": "β(1→6)-branched (1→3)-β-d-glucan", "values": [{"measurement": "antitumor activity against sarcoma 180 tumors", "setting": "sarcoma 180 tumors; mice", "result": "significant antitumor activity"}, {"measurement": "antitumor effect when mixed with mitomycin C", "setting": "sarcoma 180 tumors; mixed with the chemotherapy drug mitomycin C", "result": "greater than that of mitomycin C alone"}]}, {"molecule": "N[C@H](C(=O)O)c1cc(=O)[nH]o1", "note": "[ibotenic acid]", "values": [{"measurement": "minimum dose needed to obtain psychedelic effects", "setting": "[1]", "result": "30 to 60", "unit": "mg"}, {"measurement": "LD50", "setting": "mice", "result": 15, "unit": "mg/kg"}, {"measurement": "oral LD50", "setting": "mice; oral, mice", "result": 38, "unit": "mg/kg"}]}, {"molecule": "fucomannogalactan", "values": [{"measurement": "inflammatory pain induced by formalin", "setting": "[2]", "result": "significantly reduced"}]}]}
